Test results from patent US6645501B2, “Anti-pathogen system and methods of use thereof” (Washington University, priority 1997, dated 2003).
“Also recorded” adds a separate entry of the source.

B1: TAT-Dp16: TAT-p16 fusion protein containing the HIV D (p7-p1) cleavage site (protein)
chain: GRKKRRQRRRGCTERQANFLGKIWPMEPAAGSSMEPSADWLATAAARGRVEEVRALLEAGALPNAPNSYGRRPIQVMMMGSARVAELLLLHGAEPNCADPATLTRPVHDAAREGFLDTLVVLHRAGARLDVRDAWGRLPVDLAEELGHRDVARYLRAAAGGTRGSNHARIDAAEGPSDIPD
modifications: left off: small tags and cut ends
notes: TAT-p16 fusion protein containing the HIV D (p7-p1) cleavage site
B2: TAT-A-p16: HIV A (p17-p24) cleavage site inserted between the TAT and p16 domains (protein)
chain: GRKKRRQRRRGSQVSQNYPIVQNLQMEPAAGSSMEPSADWLATAAARGRVEEVRALLEAGALPNAPNSYGRRPIQVMMMGSARVAELLLLHGAEPNCADPATLTRPVHDAAREGFLDTLVVLHRAGARLDVRDAWGRLPVDLAEELGHRDVARYLRAAAGGTRGSNHARIDAAEGPSDIPD
modifications: left off: small tags and cut ends
notes: HIV A (p17-p24) cleavage site inserted between the TAT and p16 domains
B3: TAT-CPP32 mutant (protein)
chain: GRKKRRQRRRGYPYDVPDYACTERQANFLGKIWPGISLDNSYKMDYPEMGLCIIINNKNFHKSTGMTSRSGTDVDAANLRETFRNLKYEVRNKNDLTREEIVELMRDVSKEDHSKRSSFVCVLLSHGEEGIIFGTNGPVDLKKITNFFRGDRCRSLTGKPKLFIIQAMRGTELDCGIETSQVSQNYPIVQNLQGVDDDMACHKIPVEADFLYAYSTAPGYYSWRNSKDGSWFIQSLCAMLKQYADKLEFMHILTRVNRKVATEFESFSFDATFHAKKQIPCIVSMLTKELYFYH
modifications: left off: small tags and cut ends

Experiments:
Assay type in all cases: cell-based
Jurkat T-cells = test: Transduction of FITC-labeled synthetic peptides into Jurkat T-cells (rate and intracellular concentration versus TAT); settings: for Intracellular Concentration / Rate Compared to TAT: FITC-labeled peptide, Jurkat T-cells; for Intracellular Concentration: at equilibrium, relative to the TAT peptide; for Rate Compared to TAT: sign relative to TAT
Experimental: The following artificial (i.e. synthetic) peptides were made by conventional peptide synthesis as described above. A goal of this experiment was to produce transduction domains that could transduce more effectively as judged by the intracellular concentration in transduced cells. The transduction domains were tested against a suitable control, which typically was the “natural” TAT or an Antp transduction domain. Briefly, a FITC group was synthetically attached to N-terminus of 100% of each peptide so that transduction rate and intracellular concentration of each peptide could be quantified at equilibrium. The TAT transduction domain is recognized to be alpha-helical. In each synthetic peptide sequence, an alpha-helix was modeled with varying amounts of Arg on one face. That is, a series of synthetic peptides was designed that contained varying amounts of Arg residues on one surface and substituted with Ala residues. Both Ala and Arg residues have the highest probability/energetics for maintaining an alpha-helical structure. See FIG. 7, which depicts each peptide as a helical wheel projection. The peptides are shown below in Table 2.
The synthetic peptides were transduced into Jurkat T-cells along lines described above in Example 4.

[1] = system: Jurkat T-cells infected by HIV (strain NLHX); test: Killing of HIV-infected Jurkat T-cells, trypan blue exclusion and microscopy
Experimental: About 5×10^6 Jurkat T-cells were infected by HIV (strain NLHX; about 1×10^5 to 1×10^6 infectious virus per ml). The cells were propagated in RPMI media. Approximately 4 to 7 days after the infection, the media was removed from the plates and about 35 to 45 nanomoler of the TAT-CPP32 fusion protein was added to the cells. The cells were incubated with the fusion proteins for about 30 minutes to allow transduction into the cells. […] Subsequently, media was added back to the plates and after about 18 hours post-transduction, the cells were examined for cell killing using conventional trypan blue exclusion and microscopy.
Briefly, cells were infected and transduced as described in Example 6 above. Following the transduction, about 1 μg/ml Ritonavir was added to the cell media and allowed to incubate with the cells for about 18 hours. The cells were then assayed for cell killing by conventional trypan blue exclusion and microscopy. […]

[2] = system: Jurkat T cells infected with the NLHX strain of HIV-I; test: Cytotoxicity of TAT-Casp3 on HIV infected Jurkat cultures, exclusionary dye viability analysis; settings: 1 μg/ml Ritonavir prior to 100 nM TAT-Casp3WT
From the text: To make this determination, Jurkat T cells were infected for 7-14 days with the NLHX strain of HIV-I and examined microscopically for HIV cytopathic effects. See Westervelt, P., et al., Identification of a determinant within the HIV-1 surface envelope glycoprotein critical for productive infection of cultured primary monocytes. Proc. Natl. Acad. Sci USA 88: 3097 (1991). At the start of each transduction experiment approximately 50% of the culture was HIV positive. HIV infected cultures were transduced for 16 hr with 100 nM TAT-Casp3WT or TATCasp3MUT protein and then assayed for cell viability (FIG. 13). […] In addition, we detected both the appearance of cells containing <2N DNA content and cells with condensed nuclei in TAT-Casp3 treated cells.
To determine if TAT-Casp3WT induced apoptosis was dependent on active HIV Protease in the infected cultures, HIV infected cultures were pretreated with 1 μg/ml Ritonavir prior to transduction with 100 nM TAT-Casp3WT protein (FIG. 5). […] In addition, the observed increased survival of Ritonavir treated cells is consistent with increased longevity of protease inhibitor treated HIV infected cells. See Coffin, J. M., et al. (supra).
The specific killing of HIV infected cells shown in FIG. 5 is explained in more detail as follows. Jurkat T cells were infected for 7-14 days with HIV strain NLHX, then transduced with TAT-Casp3WT (WT) or TAT-Casp3MUT (MUT) proteins for 16 hr and assayed for cell viability. […] Ctrl, control addition of PBS to cultures; abscissa, % viability of HIV positive cells in the population at start of transduction; error bars represent SD.
(§1) 1. […] See Lissy, N. A., et al. (supra). […] See Ezhevsky, S. A., et al. (supra). […] See Xiang, J., et al., (supra). […] See Xiang, J., et al., (supra). […] See Ezhevsky, S. A., et al. (supra).

Jurkat T cells [3] = test: Co-transduction of uninfected Jurkat T cells with TAT-CPP32 and TAT-Protease, survival by trypan-blue exclusionary dye microscopy
Experimental: To test for activation of the TAT-CPP32 by TAT-Protease, 2×10^6 Jurkat T cells were placed in 2 ml of culture (RPMI media). To these cells, various combinations of control and experimental transducible proteins were added in 50-100 nM ranges, as follows:
The cells were assayed for survival at 18 hr post-addition by trypan-blue exclusionary dye microscopy. […] Thus, activation of TAT-CPP32 requires the presence of HIV protease.

HIV Protease = target: T1, HIV Protease (Human immunodeficiency virus type 1 group M subtype B, UniProt P04585); test: In vivo substrate cleavage by co-transduced TAT-HIV Pr in Jurkat T cells, immunoblot
T1 construct: PCR cloning the HIV Protease gene from HXB2R HIV strain; 6xHis (from the pTAT vector) (N); made in house; the purified protein was added to Jurkat T cells
Experimental: To assay for in vivo cleavage, p 16(−) Jurkat T cells were transduced with 100 nM TAT-Ap16 or control TAT-p16 protein (no HIV cleavage site) alone or in combination with 50 nM TATHIV Pr fusion protein for 5 hr and analyzed by anti-p16 immunoblot for in vivo cleavage at the HIV A proteolytic cleavage site (FIG. 10A). […] Size analysis of the cleaved TAT-A-p 16 protein was consistent with retention of the residual HIV half site present on the N′ terminus of p 16 (FIG. 10A, see lane 4 vs. 5).
Further, the TAT-Casp3MUT protein was transduced in combination with TAT-HIV Pr protein into cells (FIG. 10B).
The in vivo processing in co-transduced cells shown in FIGS. 10A and 10B is explained in more detail as follows. FIG. 10A. Cultures of p16(−) Jurkat T cells were transduced with TAT-p 16 or TAT-A-p 16 substrate proteins in combination with TATHIV Pr proteins for 5 hr and subjected to anti-p 16 immunoblot analysis. […] WCE, HepG2 whole cell lysate containing wild type endogenous p16; A-p16, cleaved TAT-A-16 product retaining the HIV half site on p16. FIG. 10B. Cultures of Jurkat T cells were transduced with TATCasp3MUT protein (TAT-“D” site-p 17 domain-“A” site-p12 domain) alone or in combination with TAT-HIV Pr (Pr) protein as indicated and immunoblotted with anti-Caspase-3 antibodies specific for the p17 domain. TAT-D-p17-A, cleaved product of TAT-Casp3 containing the N′ terminal HIV A half site.
as §1

Jurkat T cells [4] = test: FACS and confocal analysis of FITC-labeled TAT fusion proteins added to Jurkat T cells; settings: FITC-labeled protein added to media of Jurkat T cells
Experimental: To test the ability of TAT-Casp3 proteins to transduce into cells, TAT-Casp3 proteins were conjugated to fluorescein (FITC), then added directly to the media of Jurkat T cells and analyzed by Flow Cytometry (FACS) (FIGS. 9B-C). Both TAT-Casp3WT and TAT-Casp3MUT proteins rancidly transduced into ˜100% of cells, achieving maximum intracellular concentration in less than 20 min. In addition, based on the narrow peak width before and after addition of FITC labeled proteins, individual cells within the population contain near identical intracellular concentrations of TAT-Casp3-FITC protein. […] Thus, TAT-Casp3 proteins readily transduce into 100% of all cells inca rapid and concentration-dependent fashion.
The generation and transduction of TAT fusion proteins shown in FIGS. 9A-E are explained in more detail as follows: FIG. 9A. Diagram depicting HIV cleavage site sequences and domains of TAT fusion proteins. FIGS. 9B-D. FACS kinetic analysis of fluorescein (FITC) labeled TAT-Casp3WT, TAT-Casp3MUT and TAT-HIV Pr proteins added to cells at 0, 20 and 30 min. FIG. 9E. FACS dose analysis of 3, 6, and 12 nM TAT-Casp3WT-FITC protein added to cells at I hr post-addition. Note rapid, concentration-dependent transduction of all FITC labeled protein into ˜100% of cells and near identical intracellular concentration within the population as measured by FACS peak width of control vs. transduced cells.
as §1

[5] = 50-100 nM, uninfected Jurkat T cells, 18 hr post-addition

Row | Molecule | Intracellular Concentration (Jurkat T-cells) | Rate Compared to TAT (Jurkat T-cells) | further results
1 | 1 (AKIWFQNRRMKWKKEN; human) [compound 1] | 1 X | = | –
2 | 2 (YGRKKRRQRRR; human) [compound 2] | 1 X | = | –
3 | 3 (YARKARRQARR; human) [compound 3] | 10 X | = | –
4 | 4 (YARAAARQARA; human) [compound 4] | 5 X | = | –
5 | 5 (YARAARRAARR; human) [compound 5] | 10 X | = | –
6 | 6 (YARAARRAARA; human) [compound 6] | 5 X | = | –
7 | 7 (YARRRRRRRRR; human) [compound 7] | 5 X | = | –
8 | 8 (YAAARRRRRRR; human) [compound 8] | 5 X | = | –
9 | 10 (CTERQANFLGKIWP; human) [compound 10] | 1 X | < | –
10 | CC(C)c1nc(CN(C)C(=O)N[C@H](C(=O)N[C@@H](Cc2ccccc2)C[C@H](O)[C@H](Cc2ccccc2)NC(=O)OCc2cncs2)C(C)C)cs1 [Ritonavir, reference compound] | – | – | effect on the ability of TAT-CPP32 to kill infected cells ([1]; about 1 μg/ml Ritonavir added after transduction, about 18 hours): essentially blocked; effect of pretreatment on TAT-Casp3WT killing of HIV infected cells [2]: protection from TAT-Casp3WT induced apoptosis; also recorded: protects infected cells; effect of the protease inhibitor on TAT-CPP32 wild type killing (Jurkat T cells [3]; added to TAT-CPP32 wild type plus TAT-Protease experiment): loss of specific TAT-CPP32 wild type killing
11 | RQIKIWFQNRRMKWKK [SEQ ID NO. 10, reference compound] | – | – | transduction rate relative to the TAT peptide (in words) (Jurkat T-cells): slower transduction rate
12 | B1 | – | – | preference between HIV A site and D site (HIV Protease; co-transduction with TAT-HIV Pr): HIV A site was preferentially cleaved over
13 | B2 | – | – | cells transduced (Jurkat T cells [4]): 100%; cleavage at the HIV cleavage site when co-transduced with TAT-HIV Pr (HIV Protease; 100 nM substrate, 50 nM TAT-HIV Pr, Jurkat T cells, immunoblot): specific substrate cleavage
14 | B3 | – | – | killing of HIV-infected cells ([1]; about 35 to 45 nanomoler, about 18 hours post-transduction): not capable of killing; cytotoxicity when added alone (Jurkat T cells [3]; [5]): minimal cytotoxicity; loss of viable cells when added plus TAT-Protease (Jurkat T cells [3]; [5]): not
